target: T1, Androgen Receptor protein in human LnCaP cells (Homo sapiens, UniProt P10275, T878A); test: Androgen Receptor Degradation Assay (Nano-Glo HiBiT, LnCaP cells); format: cell-based; conditions: 18 h, HiBiT-tagged AR LnCaP cells, 18 h incubation, fitted curve asymptote maximum of degradation, read-out: mean asymptote max
T1 construct: the AR gene was modified, using CRISPR/Cas9 editing, so the expressed AR protein included an 11 amino acid HiBiT tag; endogenous in cells; host or cells: clonal LnCaP derived cell line, endogenous AR gene edited by CRISPR/Cas9
T1 sequence (P10275 1-920 T878A): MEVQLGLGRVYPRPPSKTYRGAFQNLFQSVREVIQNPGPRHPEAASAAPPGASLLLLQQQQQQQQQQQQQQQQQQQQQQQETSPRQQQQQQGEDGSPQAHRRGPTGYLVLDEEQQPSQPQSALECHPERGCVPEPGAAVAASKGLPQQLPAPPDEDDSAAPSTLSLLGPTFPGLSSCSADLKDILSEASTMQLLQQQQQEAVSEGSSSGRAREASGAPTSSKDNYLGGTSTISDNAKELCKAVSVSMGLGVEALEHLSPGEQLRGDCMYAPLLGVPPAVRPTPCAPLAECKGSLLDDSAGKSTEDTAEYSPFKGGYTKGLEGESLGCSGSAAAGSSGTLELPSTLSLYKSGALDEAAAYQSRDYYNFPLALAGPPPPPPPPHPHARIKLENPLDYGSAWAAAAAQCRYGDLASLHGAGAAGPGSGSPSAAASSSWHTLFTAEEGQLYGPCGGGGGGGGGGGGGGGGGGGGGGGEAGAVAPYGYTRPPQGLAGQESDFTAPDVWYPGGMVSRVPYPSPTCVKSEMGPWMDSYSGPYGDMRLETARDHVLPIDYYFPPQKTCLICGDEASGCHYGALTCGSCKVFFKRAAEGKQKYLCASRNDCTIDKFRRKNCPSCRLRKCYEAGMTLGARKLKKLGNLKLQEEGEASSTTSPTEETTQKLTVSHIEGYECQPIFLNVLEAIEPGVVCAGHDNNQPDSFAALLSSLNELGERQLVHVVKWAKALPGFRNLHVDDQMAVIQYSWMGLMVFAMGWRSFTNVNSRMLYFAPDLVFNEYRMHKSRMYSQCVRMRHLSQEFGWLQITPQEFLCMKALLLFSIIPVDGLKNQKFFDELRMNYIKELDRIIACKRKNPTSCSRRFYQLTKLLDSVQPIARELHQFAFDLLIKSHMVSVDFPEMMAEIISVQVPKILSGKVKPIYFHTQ
Description: Degradation of Androgen Receptor protein in human LnCaP cells treated with PROTACs was quantified using the Nano-Glo® HiBiT Lytic Detection System (Promega) in 384 well assay plate format. A clonal LnCaP derived cell line was first established in which the AR gene was modified, using CRISPR/Cas9 editing, so the expressed AR protein included an 11 amino acid HiBiT tag at its amino-terminus. 10 mM DMSO stock solutions of PROTACs were prepared and diluted across an 11 concentration, 3 fold increment range, and 25 nL dispensed into a white opaque bottomed 384 well assay plate (Thermofisher) using an acoustic ECHO dispenser (Labcyte). Cells were grown in cell culture medium (RPMI 1640 supplemented with 15% FBS, penicillin 50U/mL and streptomycin 50 ug/mL (Thermofisher)). For the assay, cells were detached from flask and resuspended with assay medium (FluoroBrite™ DMEM supplemented with 10% heat inactivated FBS, penicillin 50U/mL and streptomycin 50 ug/mL (Thermofisher)). The cell suspension was centrifuged at 400 g for 5 min and the pellet resuspended in assay medium. 25 μL of cell suspension containing 10,000 cells was dispensed into each well of the assay plate containing a serial dilution of test compounds, which was then incubated for 18 h at 37° C./5% CO2. Control wells were included on each assay plate, with assay medium without cells being the no AR remaining 100% effect control, and cells treated with DMSO vehicle only, without PROTAC, the 0% effect control. 25 μL of Nano-Glo® HiBiT lysis buffer supplemented with LgBiT protein and Nano-Glo® substrate (Promega) was added to each well and the plate shaken at 500 rpm for 10 min at room temperature. The intensity of luminescence was measured using a PHERAstar microplate reader (BMG Labtech) and the % AR protein remaining in each well calculated by normalising the raw luminescence value to the above control wells. Parameters corresponding to the potency and efficacy estimates of the PROTACs were obtained from these normalised luminescence values using software (IDBS ActivityBase). These included the DC50 (concentration at which 50% of protein was degraded in M) and the Dmax (maximal degradation, in %) estimates. Two versions of the DC50, called relative DC50 and absolute DC50, were generated. These are the inflection point of a fitted 4 parameter sigmoidal response curve and the interpolated concentration of PROTAC corresponding to 50% of the protein being degraded, respectively. The corresponding pDC50 is reported as −log10(relative […]). The Dmax parameter was the maximum experimentally observed degradation and the asymptote max parameter the fitted response curve asymptote maximum.

| Dmax [%] | SMILES |
| --- | --- |
| ≥ 50 | CC1(C)[C@H](NC(=O)c2ccc(N3CCC(CN4CCC(n5ncc6c(N7CCC(=O)NC7=O)ccnc65)CC4)CC3)c(F)c2)C(C)(C)[C@H]1Oc1ccc(C#N)c2ncccc12 [Example 40, N-((1r,3r)-3-((8-Cyanoquinolin-5-yl)oxy)-2,2,4,4-tetramethylcyclobutyl)-4-(4-((4-(4-(2,4-dioxotetrahydropyrimidin-1(2H)-yl)-1H-pyrazolo[3,4-b]pyridin-1-yl)piperidin-1-yl)methyl)piperidin-1-yl)-3-fluorobenzamide] |
| ≥ 50 | CC1(C)[C@H](NC(=O)c2ccc(N3CCC(CN4CC[C@H](n5ncc6c(N7CCC(=O)NC7=O)cccc65)[C@H](F)C4)CC3)c(F)c2)C(C)(C)[C@H]1Oc1ccc(C#N)c2ncccc12 [Example 46, N-((1r,3r)-3-((8-Cyanoquinolin-5-yl)oxy)-2,2,4,4-tetramethylcyclobutyl)-4-(4-(((3R,4S)-4-(4-(2,4-dioxotetrahydropyrimidin-1(2H)-yl)-1H-indazol-1-yl)-3-fluoropiperidin-1-yl)methyl)piperidin-1-yl)-3-fluorobenzamide] |
| ≥ 50 | CC1(C)[C@H](NC(=O)c2ccc(N3CCC(CN4CC[C@@H](n5ncc6c(N7CCC(=O)NC7=O)cccc65)C4)CC3)c(F)c2)C(C)(C)[C@H]1Oc1ccc(C#N)c2ncccc12 [Example 36, N-((1r,3r)-3-((8-Cyanoquinolin-5-yl)oxy)-2,2,4,4-tetramethylcyclobutyl)-4-(4-(((R)-3-(4-(2,4-dioxotetrahydropyrimidin-1(2H)-yl)-1H-indazol-1-yl)pyrrolidin-1-yl)methyl)piperidin-1-yl)-3-fluorobenzamide] |
| ≥ 50 | CC1(C)[C@H](NC(=O)c2ccc(N3CC[C@@H](CN4CCC(n5ncc6c(N7CCC(=O)NC7=O)cccc65)CC4)C3)c(F)c2)C(C)(C)[C@H]1Oc1ccc(C#N)c2ncccc12 [Example 33, N-((1r,3S)-3-((8-Cyanoquinolin-5-yl)oxy)-2,2,4,4-tetramethylcyclobutyl)-4-((S)-3-((4-(4-(2,4-dioxotetrahydropyrimidin-1(2H)-yl)-1H-indazol-1-yl)piperidin-1-yl)methyl)pyrrolidin-1-yl)-3-fluorobenzamide] |
| ≥ 50 | CC1(C)[C@H](NC(=O)c2ccc(N3CCC(CN4CCC(n5ccc6c(N7CCC(=O)NC7=O)cccc65)CC4)CC3)c(F)c2)C(C)(C)[C@H]1Oc1ccc(C#N)c2ncccc12 [Example 31, N-((1r,3r)-3-((8-Cyanoquinolin-5-yl)oxy)-2,2,4,4-tetramethylcyclobutyl)-4-(4-((4-(4-(2,4-dioxotetrahydropyrimidin-1(2H)-yl)-1H-indol-1-yl)piperidin-1-yl)methyl)piperidin-1-yl)-3-fluorobenzamide] |
| ≥ 50 | CC1(C)[C@H](NC(=O)c2ccc(N3CCC(CN4CCC(n5ncc6c(N7CCC(=O)NC7=O)cccc65)CC4)CC3)c(F)c2)C(C)(C)[C@H]1Oc1cnc(C#N)c(Cl)c1 [Example 3, N-((1r,3r)-3-((5-Chloro-6-cyanopyridin-3-yl)oxy)-2,2,4,4-tetramethylcyclobutyl)-4-(4-((4-(4-(2,4-dioxotetrahydropyrimidin-1(2H)-yl)-1H-indazol-1-yl)piperidin-1-yl)methyl)piperidin-1-yl)-3-fluorobenzamide] |
| ≥ 50 | CC1(C)[C@H](NC(=O)c2cc(F)c(N3CCC(CN4CCC(n5ncc6c(N7CCC(=O)NC7=O)cccc65)CC4)CC3)c(F)c2)C(C)(C)[C@H]1Oc1ccc(C#N)c2ncccc12 [Example 30, N-((1r,3r)-3-((8-Cyanoquinolin-5-yl)oxy)-2,2,4,4-tetramethylcyclobutyl)-4-(4-((4-(4-(2,4-dioxotetrahydropyrimidin-1(2H)-yl)-1H-indazol-1-yl)piperidin-1-yl)methyl)piperidin-1-yl)-3,5-difluorobenzamide] |
| ≥ 50 | CC1(C)[C@H](NC(=O)c2ccc(N3CCC(CN4CCC(n5ncc6c(N7CCC(=O)NC7=O)c(F)ccc65)CC4)CC3)c(F)c2)C(C)(C)[C@H]1Oc1ccc(C#N)c(Cl)c1 [Example 13, N-((1r,3r)-3-(3-Chloro-4-cyanophenoxy)-2,2,4,4-tetramethylcyclobutyl)-4-(4-((4-(4-(2,4-dioxotetrahydropyrimidin-1(2H)-yl)-5-fluoro-1H-indazol-1-yl)piperidin-1-yl)methyl)piperidin-1-yl)-3-fluorobenzamide] |
| ≥ 50 | CC1(C)[C@H](NC(=O)c2ccc(N3CCC(CN4CCC(n5ccc6c(N7CCC(=O)NC7=O)c(F)ccc65)CC4)CC3)c(F)c2)C(C)(C)[C@H]1Oc1ccc(C#N)c2ncccc12 [Example 51, N-((1r,3r)-3-((8-Cyanoquinolin-5-yl)oxy)-2,2,4,4-tetramethylcyclobutyl)-4-(4-((4-(4-(2,4-dioxotetrahydropyrimidin-1(2H)-yl)-5-fluoro-1H-indol-1-yl)piperidin-1-yl)methyl)piperidin-1-yl)-3-fluorobenzamide] |
| ≥ 50 | CC1(C)[C@H](NC(=O)c2ccc(N3CCC(CN4CCC(n5ncc6c(N7CCC(=O)NC7=O)cccc65)CC4)CC3)c(Cl)c2)C(C)(C)[C@H]1Oc1ccc(C#N)c2ncccc12 [Example 44, 3-Chloro-N-((1r,3r)-3-((8-cyanoquinolin-5-yl)oxy)-2,2,4,4-tetramethylcyclobutyl)-4-(4-((4-(4-(2,4-dioxotetrahydropyrimidin-1(2H)-yl)-1H-indazol-1-yl)piperidin-1-yl)methyl)piperidin-1-yl)benzamide] |
| ≥ 50 | CC1(C)[C@H](NC(=O)c2ccc(N3CCC(CN4CCC(n5ncc6c(N7CCC(=O)NC7=O)cc(F)cc65)CC4)CC3)c(F)c2)C(C)(C)[C@H]1Oc1ccc(C#N)c2ncccc12 [Example 38, N-((1r,3r)-3-((8-Cyanoquinolin-5-yl)oxy)-2,2,4,4-tetramethylcyclobutyl)-4-(4-((4-(4-(2,4-dioxotetrahydropyrimidin-1(2H)-yl)-6-fluoro-1H-indazol-1-yl)piperidin-1-yl)methyl)piperidin-1-yl)-3-fluorobenzamide] |
| ≥ 50 | CC1(C)[C@H](NC(=O)c2ccc(N3CCC(CN4CCC(n5ncc6c(N7CCC(=O)NC7=O)c(F)ccc65)CC4)CC3)c(F)c2)C(C)(C)[C@H]1Oc1ccc(C#N)c2ncccc12 [Example 50, N-((1r,3r)-3-((8-Cyanoquinolin-5-yl)oxy)-2,2,4,4-tetramethylcyclobutyl)-4-(4-((4-(4-(2,4-dioxotetrahydropyrimidin-1(2H)-yl)-5-fluoro-1H-indazol-1-yl)piperidin-1-yl)methyl)piperidin-1-yl)-3-fluorobenzamide] |
| ≥ 50 | CC1(C)[C@H](NC(=O)c2ccc(N3CCC(CN4CCC(n5ncc6c(N7CCC(=O)NC7=O)cccc65)CC4)CC3)c(F)c2)C(C)(C)[C@H]1Oc1ccc(C#N)c2c1CCCO2 [Example 8, N-((1r,3r)-3-((8-Cyanochroman-5-yl)oxy)-2,2,4,4-tetramethylcyclobutyl)-4-(4-((4-(4-(2,4-dioxotetrahydropyrimidin-1(2H)-yl)-1H-indazol-1-yl)piperidin-1-yl)methyl)piperidin-1-yl)-3-fluorobenzamide] |
